Tested on: C57Bl/6 mice transplanted after myeloablation by total body irradiation (TBI)
Experiment: Survival of mice after syngeneic bone marrow transplant following myeloablation by total body irradiation, with suspected norovirus infection
Format: in vivo
Details: 500 μg/kg/day subcutaneous, FIG. 1
Protocol: FIG. 1. C57Bl/6 mice (n=40/group) were transplanted after myeloablation by total body irradiation (TBI) from Saline or A(1-7) treated donors and received saline or A(1-7) after transplant.
[…] mice underwent […] in split doses separated by 3 hours. Two hours after TBI, the mice received 2×10^6 syngeneic bone marrow cells by intravenous injection. For treatment, either donors (14 days prior to donation), recipients (starting on the day of transplant) or both received 500 μg/kg/day A(1-7) by subcutaneous injection During bone marrow transplant (BMT), recipients are immune suppressed due to myeloablation. Mice are normally kept in pathogen-free environments during BMT to reduce mortality due to infection.

How did the survival (both donor and recipient treated) turn out when “Asp-Arg-Val-Tyr-Ile-His-Pro (DRVYIHP) [A(1-7)]” was run?
The survival was “all surviving”.

What about the survival (treatment of either donor (14 days prior to donation), recipient (starting on day of transplant) or both) of the same substance?
Its survival is “improved survival”.
